Reference: patent US12310365B2 (priority 2009, dated 2025)
Where two headings read alike, the source gives them in different places.

Columns and labels:
Format in all cases: in vivo
[1] = system: Botrytis cinerea (Diethofencarb-resistant strain); experiment: Tomato gray mold preventive test (Diethofencarb-resistant strain); details: Botrytis cinerea, topical, 48 h, read-out: Control value
Pyricularia oryzae [2] = experiment: whole plant or invertebrate; details: topical, 168 h, read-out: Control value
Pyricularia oryzae [3] = experiment: whole plant or invertebrate; details: topical, 168 h, read-out: Control value; remark: listed apart in the source
Sphaerotheca fuliginea [4] = experiment: Cucumber powdery mildew preventive test; details: Podosphaera fuliginea, topical, 168 h; treatment concentration 10 ppm
Sphaerotheca fuliginea [5] = experiment: Cucumber powdery mildew curative test; details: Podosphaera fuliginea, topical, 168 h; treatment concentration 10 ppm
Phytophthora infestans [6] = experiment: whole plant or invertebrate; details: in Solanum lycopersicum, topical, 168 h, read-out: Control value
Phytophthora infestans [7] = experiment: whole plant or invertebrate; details: in Solanum lycopersicum, topical, 168 h, read-out: Control value; remark: listed apart in the source
[8] = system: Pseudoperonospora cubensis; experiment: Cucumber downy mildew preventive test; details: Pseudoperonospora cubensis, topical, 168 h; treatment concentration 10 ppm
[9] = system: Pseudoperonospora cubensis; experiment: Cucumber downy mildew curative test; details: Pseudoperonospora cubensis, topical, 168 h, single ingredient, treatment concentration 10 ppm

CC1(C)N=C(c2cnc3ccccc3c2)c2ccccc2C1(F)F [B, 3-(4,4-difluoro-3,3-dimethyl-3,4-dihydroisoquinolin-1-yl)quinoline]
pest or weed control at 10 ppm [1]: 83% | pest or weed control at 10 ppm (Pyricularia oryzae [2]): 83% | pest or weed control at 10 ppm (Pyricularia oryzae [3]): 86% | pest or weed control at 10 ppm (Sphaerotheca fuliginea [4]): 60% | pest or weed control at 10 ppm (Sphaerotheca fuliginea [5]): 73% | pest or weed control at 10 ppm (Phytophthora infestans [6]): 0% | pest or weed control at 10 ppm (Phytophthora infestans [7]): 0% | pest or weed control at 10 ppm [8]: 28% | pest or weed control at 10 ppm [9]: 33%
